Structures are written as SMILES.

One may read the Papp as the rate of passage across a membrane or cell layer, normalised by area and donor concentration. As a reminder, the Tmax is the time at which the peak concentration occurs. For orientation: AUC(0-t) means the area under the concentration-time curve up to a stated or last time point. The low end stands for low exposure, the high end for high exposure. One may read the MRT last as the average time that molecules of a dose stay in the body. Broadly, the Km is the concentration of substrate that gives half-maximal velocity. In general, Vmax refers to the top rate of the reaction or transport when substrate is in excess. A word on the Cmax: it is the maximum level reached in the sampled fluid or tissue. A word on the bioavailability: it is the share of a dose that reaches the circulation, judged against a reference dose that is usually intravenous.

For data set [1], the system named is Hamster. The data set can be described thus: Drug metabolism in hamster assessed as disappearance rate of parent compound in intestine at 400 uM administered as intestinal single-pass perfusion up to 1 hr by LC-MS/MS analysis in presence of BNPP. It counts as ADME, organism-based. The note with it: cricetinae, in vivo, other.
Data set [2] can be described thus: Drug metabolism in hamster liver microsomes assessed as carboxylesterase-mediated compound hydrolysis at 50 uM after 30 mins in presence of BNPP in presence of BNPP. It counts as ADME. The note with it: cricetinae, 0.5 h.
Data set [3] in a line: Apparent permeability coefficient of parent compound in hamster at 400 uM administered as intestinal single-pass perfusion up to 1 hr by LC-MS/MS analysis in presence of BNPP. It counts as ADME, organism-based. The note with it: cricetinae, with BNPP.
A short description of data set [4]: Stability of the compound in hamster intestinal washings assessed as compound remaining at 100 uM after 1 hr by LC-MS/MS analysis. It is filed as ADME. The note with it: cricetinae, read-out: Stability.
The subject of data set [5] is Hamster. The experiment in a line: Drug metabolism in hamster assessed as appearance rate of parent compound in portal vein at 400 uM administered as intestinal single-pass perfusion up to 1 hr by LC-MS/MS analysis in presence of BNPP. It counts as ADME, organism-based. The note with it: cricetinae, in vivo, other.
A short description of data set [6]: Drug metabolism in hamster intestinal microsomes assessed as carboxylesterase-mediated compound hydrolysis at 50 uM after 30 mins. The note with it: cricetinae, 0.5 h. It is filed as ADME, Intestine.
A short description of data set [7]: Tmax in hamster at 30 mg/kg, po. It is filed as ADME, organism-based. Details: dose 30 mg/kg, route oral. The note with it: cricetinae, in vivo.
Data set [8] can be described thus: Drug metabolism in hamster liver microsomes assessed as carboxylesterase-mediated compound hydrolysis at 50 uM after 30 mins in presence of BNPP. The note with it: cricetinae, 0.5 h. It is filed as ADME. (Liver microsomes are vesicles of endoplasmic reticulum, rich in cytochrome P450 enzymes.)
For data set [9], the system named is Hamster. The experiment in a line: Drug metabolism in hamster intestinal S9 fraction assessed as production of piperinic acid at 400 uM administered as intestinal single-pass perfusion up to 1 hr by LC-MS/MS analysis in presence of BNPP. It is filed as ADME, Intestine. The note with it: cricetinae, s9, 1 h.
Data set [10] is described as follows: Drug metabolism in hamster liver microsomes assessed as carboxylesterase-mediated compound hydrolysis at 50 uM after 30 mins. It counts as ADME. The note with it: cricetinae, 0.5 h.
Data set [11] can be described thus: AUC (0 to t) in hamster at 10 mg/kg, iv. It counts as ADME, organism-based. Also noted: dose 10 mg/kg, route intravenous. The note with it: cricetinae, plasma.
A short description of data set [12]: MRT (0 to t) in hamster at 10 mg/kg, iv. The note with it: cricetinae, in vivo. Also noted: dose 10 mg/kg, route intravenous. It counts as ADME, organism-based.
Data set [13] can be described thus: Permeability from basolateral to apical side of human Caco2 cells at 5 uM after 1 hr in presence of BNPP. It is filed as ADME, cell-based. The note with it: caco-2, 1 h.
For data set [14], the system named is Hamster. The data set can be described thus: Degradation clearance in hamster at 400 uM administered as intestinal single-pass perfusion up to 1 hr by LC-MS/MS analysis. It is filed as ADME, organism-based. The note with it: cricetinae, in vivo, other.
The nature of data set [15]: Apparent permeability coefficient of parent compound in hamster at 400 uM administered as intestinal single-pass perfusion up to 1 hr by LC-MS/MS analysis. The note with it: cricetinae. It counts as ADME, organism-based.
Data set [16] in a line: Drug metabolism in hamster kidney microsomes assessed as carboxylesterase-mediated compound hydrolysis at 50 uM after 30 mins. It is filed as ADME. The note with it: cricetinae, 0.5 h.
The nature of data set [17]: Permeability from apical to basolateral side of human Caco2 cells at 5 uM after 1 hr in presence of BNPP. It is filed as ADME, cell-based. The note with it: caco-2, 1 h. (In general: Passage across Caco-2 layers is used to estimate intestinal permeability.)
Data set [18] deals with Hamster. The data set can be described thus: Degradation clearance in hamster at 400 uM administered as intestinal single-pass perfusion up to 1 hr by LC-MS/MS analysis in presence of BNPP. It is filed as ADME, organism-based. The note with it: cricetinae, in vivo, other.
Data set [19] can be described thus: Drug metabolism in hamster intestinal S9 fraction assessed as production of piperinic acid by Michaelis-Menten equation analysis. It is filed as ADME, Intestine. The note with it: cricetinae.
Data set [20] concerns Hamster. The data set can be described thus: Volume of distribution in hamster at 10 mg/kg, iv. It is filed as ADME, organism-based. Details: dose 10 mg/kg, route intravenous. The note with it: cricetinae, in vivo.
Data set [21] is described as follows: Drug recovery in human Caco2 cells at 5 uM after 1 hr in presence of BNPP. It counts as ADME, cell-based. The note with it: Caco-2, with BNPP, read-out: Drug recovery.
A short description of data set [22]: Elimination half life in hamster at 10 mg/kg, iv. Also noted: dose 10 mg/kg, route intravenous. The note with it: cricetinae, in vivo, read-out: beta t1/2 (converted). It is filed as ADME, organism-based.
Data set [23] relates to Hamster. The experiment in a line: Absorption clearance in hamster at 400 uM administered as intestinal single-pass perfusion up to 1 hr by LC-MS/MS analysis. It counts as ADME, organism-based. The note with it: cricetinae, in vivo, other.
Data set [24] can be described thus: MRT (0 to t) in hamster at 30 mg/kg, po. It counts as ADME, organism-based. The note with it: cricetinae, in vivo. Also noted: dose 30 mg/kg, route oral.
Data set [25] is described as follows: Cmax in hamster at 30 mg/kg, po. It counts as ADME, organism-based. Also noted: dose 30 mg/kg, route oral. The note with it: cricetinae, in vivo.
Data set [26] in a line: AUC (0 to t) in hamster at 30 mg/kg, po. It is filed as ADME, organism-based. Details: dose 30 mg/kg, route oral. The note with it: cricetinae, plasma.
For data set [27], the system named is Hamster. The experiment in a line: Drug metabolism in hamster assessed as appearance rate of parent compound in portal vein at 400 uM administered as intestinal single-pass perfusion up to 1 hr by LC-MS/MS analysis. It is filed as ADME, organism-based. The note with it: cricetinae, in vivo, other.
Data set [28] can be described thus: Oral bioavailability in hamster at 30 mg/kg. It is filed as ADME, organism-based. The note with it: cricetinae, in vivo.
The nature of data set [29]: Stability of the compound at simulated gastrointestinal pH conditions assessed as degradation. It is filed as ADME.
For data set [30], the system named is Hamster. The data set can be described thus: Drug metabolism in hamster assessed as production of piperinic acid at 400 uM administered as intestinal single-pass perfusion up to 1 hr by LC-MS/MS analysis. The note with it: cricetinae, in vivo, other. It is filed as ADME, organism-based.
Data set [31] can be described thus: Drug metabolism in hamster kidney microsomes assessed as carboxylesterase-mediated compound hydrolysis at 50 uM after 30 mins in presence of BNPP. It is filed as ADME. The note with it: cricetinae, 0.5 h.
Data set [32] relates to Hamster. The data set can be described thus: Absorption clearance in hamster at 400 uM administered as intestinal single-pass perfusion up to 1 hr by LC-MS/MS analysis in presence of BNPP. It is filed as ADME, organism-based. The note with it: cricetinae, in vivo, other.
The test system of data set [33] is Hamster. The experiment in a line: Drug metabolism in hamster assessed as disappearance rate of parent compound in intestine at 400 uM administered as intestinal single-pass perfusion up to 1 hr by LC-MS/MS analysis. It is filed as ADME, organism-based. The note with it: cricetinae, in vivo, other.
Data set [34] relates to Hamster. The experiment in a line: Drug metabolism in hamster assessed as appearance rate of compound in portal vein treated with 400 uM of ethyl piperate administered as intestinal single-pass perfusion up to 1 hr by LC-MS/MS analysis in presence of BNPP. It is filed as ADME, organism-based. The note with it: cricetinae, in vivo, other.
Data set [35] is described as follows: Apparent permeability coefficient of compound in hamster treated with 400 uM of ethyl piperate administered as intestinal single-pass perfusion up to 1 hr by LC-MS/MS analysis. The note with it: cricetinae. It is filed as ADME, organism-based.
Data set [36] is described as follows: Apparent permeability coefficient of compound in hamster treated with 400 uM of ethyl piperate administered as intestinal single-pass perfusion up to 1 hr by LC-MS/MS analysis in presence of BNPP. It is filed as ADME, organism-based. The note with it: cricetinae.
Data set [37] has as its system Hamster. The experiment in a line: Drug metabolism in hamster assessed as appearance rate of compound in intestine treated with 400 uM of ethyl piperate administered as intestinal single-pass perfusion up to 1 hr by LC-MS/MS analysis in presence of BNPP. It counts as ADME, organism-based. The note with it: cricetinae, in vivo, other.
The subject of data set [38] is Hamster. The data set can be described thus: Drug metabolism in hamster assessed as appearance rate of compound in intestine treated with 400 uM of ethyl piperate administered as intestinal single-pass perfusion up to 1 hr by LC-MS/MS analysis. It is filed as ADME, organism-based. The note with it: cricetinae, in vivo, other.
For data set [39], the system named is Hamster. The experiment in a line: Drug metabolism in hamster assessed as appearance rate of compound in portal vein treated with 400 uM of ethyl piperate administered as intestinal single-pass perfusion up to 1 hr by LC-MS/MS analysis. It counts as ADME, organism-based. The note with it: cricetinae, in vivo, other.

In the case of `CCOC(=O)/C=C/C=C/c1ccc2c(c1)OCO2`, the Drug metabolism is on record as 62.7 nmol/min with Hamster [1]; “metabolite_not_detected” in [2]; 9.8 nmol/min in the data set on Hamster [5]; “metabolite_detected” in data set [6]; “metabolite_not_detected” in [8]; 0.06 nmol/min/mg in the data set on Hamster [9]. In addition, the Drug metabolism entry is “metabolite_detected” in [10]; “metabolite_detected” in data set [16]; 10.8 nmol/min with Hamster [27]; 0.196 nmol/min/mg with Hamster [30]; “metabolite_not_detected” in data set [31]; 76.5 nmol/min in the data set with Hamster [33]. The Papp at 1 h, 400 µM in data set [3] is 59.8 ×10⁻⁶ cm/s; in data set [15], 77 ×10⁻⁶ cm/s. For the same compound, the remaining at 1 h, 100 µM in [4] is above 80%. The Tmax in [7] was 9 min. In addition, the figures for the AUC(0-t) in [11] and in data set [26] were 2450 ng·h/mL and 34.5 ng·h/mL, respectively. Further, the MRT last in data set [12] amounted to 25.8 min; in data set [24], 24 min. The permeability result in data set [13] and in [17] was “impermeable” in each case. Further, the CL came out at 339.9 µL/min with Hamster [14] and 121.6 µL/min in the data set with Hamster [18]. Further, the Km in [19] came out at 7.56 µM. In addition, in data set [19], the Vmax is 0.16 nmol/min/mg. Also, in the data set on Hamster [20], the Vz/F is 3.76 L/kg. Further, the recovery at 1 h, 5 µM in data set [21] is above 90%. Moreover, the half-life in [22] is 37.8 min. Also, the “CL(app)” value in the data set on Hamster [23] was found to be 66.7 µL/min; with Hamster [32], 55 µL/min. The highest level in data set [25] (Cmax) was 70.4 ng/mL. Besides, in data set [28], the bioavailability turned out to be 0.47%. Also, the Stability result in [29] is “Stable”.
On to `O=C(O)/C=C/C=C/c1ccc2c(c1)OCO2` [PIPERIC ACID], for which the Drug metabolism is 21.7 nmol/min in the data set with Hamster [34], 2 nmol/min in the data set on Hamster [37], 2.3 nmol/min in the data set with Hamster [38] and 52.1 nmol/min in the data set with Hamster [39]. The Papp at 1 h was 373 ×10⁻⁶ cm/s in data set [35] and 127 ×10⁻⁶ cm/s in [36].

The record behind these values is ChEMBL document CHEMBL3526108, “Contribution of carboxylesterase in hamster to the intestinal first-pass loss and low bioavailability of ethyl piperate, an effective lipid-lowering drug candidate” (Drug Metab Dispos, 2011).
